Results taken from patent US20130261133A1, “Therapeutic Compounds for Protozoal and Microbial Infections and Cancer” (THE UNIVERSITY OF MONTANA, priority 2012, published 2013).
Values joined by “and” are separate entries in the source; they are usually repeats but may differ in a detail not shown here. Identical values can stand only once. Like-named read-outs stand apart in the source and are kept apart here.

Assays:
[1] = test system: S. aureus 13709; assay: MIC broth microdilution, Alamar Blue; format: cell-based; conditions: minimum inhibitory concentration
[2] = test system: Leishmania amazonensis; assay: Antileishmanial assay, Leishmania in infected macrophages (L. amazonensis); conditions: for IC50: Leishmania amazonensis, Macrophage
[3] = test system: HepG2 cells; assay: Cytotoxicity against human liver (HepG2) cells, Alamar Blue; format: cell-based
Procedure: Several of these analogues were also evaluated for cytotoxicity against human liver (HepG2) cells. Of particular interest was that compounds 47 and 48 were approximately an order of magnitude less cytotoxic as compared to compound 1.
Adherent cell lines were maintained in Eagle's Minimal Essential Media (Sigma-Aldrich, St. Louis, Mo., USA) with 2 mM glutamine and Earle's Balanced Salt Solution (HyClone, Logan, Utah, USA) adjusted to contain 1.5 g/L sodium bicarbonate, 0.1 mM non-essential amino acids, 1 mM sodium pyruvate and 10% fetal calf serum. Fetal calf serum used in these assays was lot matched throughout. All cultures were maintained under a humidified 5% CO2 atmosphere at 37° C., had media refreshed twice weekly and were subcultured by trypsinization and resuspension at a ratio of 1:5 each week. Toxicity assays were conducted between passages 10-20. Target compound toxicity was measured by incubating the test compound with the cells for 4 hours, washing the cells and finally treating the cells with Alamar Blue. After 12-24 hours, the fluorescence of the reduced dye was measured. Fluorescence intensity as a function of test compound concentration was fit to the Fermi equation, using non-linear least squares regression analysis, to estimate IC50 values.

[4] = test system: P. aeruginosa; assay: MIC broth microdilution, Alamar Blue; format: cell-based; conditions: minimum inhibitory concentration
[5] = test system: C. glabrata; assay: MIC broth microdilution, Alamar Blue; format: cell-based; conditions: minimum inhibitory concentration
[6] = test system: E. faecalis; assay: MIC broth microdilution, Alamar Blue; format: cell-based; conditions: minimum inhibitory concentration
[7] = test system: S. pyogenes; assay: MIC broth microdilution, Alamar Blue; format: cell-based; conditions: minimum inhibitory concentration
[8] = test system: B. subtilis; assay: MIC broth microdilution, Alamar Blue; format: cell-based; conditions: minimum inhibitory concentration
[9] = test system: C. albicans; assay: MIC broth microdilution, Alamar Blue; format: cell-based; conditions: minimum inhibitory concentration
[10] = test system: B. anthracis; format: cell-based; conditions: minimum inhibitory concentration
[11] = test system: P. falciparum clone W2/Indochina; assay: In vitro malaria assay, [3H]-hypoxanthine incorporation; format: cell-based; conditions: Plasmodium falciparum, W2, 72 h, read-out: IC50 Plasmodium
Procedure: a. In vitro Parasite Culturing: P. falciparum clone W2/Indochina was grown in continuous culture using RPMI 1640 media containing 10% heat-inactivated type A+ human plasma, sodium bicarbonate (2.4 g/L), HEPES (5.94 g/L) and 4% washed human type A+ erythrocytes. Cultures were gassed with a 90% N2, 5% O2 and 5% CO2 mixture followed by incubation at 37° C. b. Assay Preparation: Test compounds at 5 mg/mL in DMSO were diluted 1:500 and then serially diluted in duplicate over 11 concentrations. P. falciparum cultures with >70% ring stage parasites were diluted to 0.5-0.7% parasitemia and 1.5% hematocrit in RPMI 1640 media. In 96-well plates a volume of 90 μl/well of parasitized erythrocytes was added on top of 10 μL/well of the test compound. A separate plate containing chloroquine, dihydroartemisinin and atovaquone was added to each set of assay plates as control drugs. A Beckman Coulter Biomek 3000 was used to dispense test compounds, control drugs and parasitized erythrocytes into the microtiter plates. Positive and negative controls were included in each plate. Positive controls consisted of parasitized erythrocytes and negative controls consisted of non-parasitized erythrocytes at 1.5% hematocrit in RPMI 1640 media. Assay plates were placed into a modulator incubator chamber and equilibrated with 90% N2, 5% O2 and 5% CO2 mixture then incubated at 37° C. for 48 hours. After 48 hours, approximately 0.05 μCi of [^3H]-hypoxanthine monohydrochloride was added to each well of the assay plates. Plates were put back into the modulator incubation chamber, gassed with the 90% N2, 5% O2 and 5% CO2 mixture then incubated at 37° C. for an additional 24 hours. After 72 hours total incubation time the plates were frozen at −80° C. until later processed for parasite growth determinations. c. Assay Plate Processing: Assay plates were harvested using a Perkin Elmer FilterMate Harvester. The incorporation of [^3H]-hypoxanthine into nucleic acid was measured using a Perkin Elmer Topcount NXT Microplate Scintillation & Luminescence Counter. d. Data Analysis: Data analysis was performed using a custom database manager (Dataspects, Inc). Nonlinear regression analysis was used to calculate EC50.

[12] = test system: Leishmania donovani in infected macrophages; conditions: Senn et al. 2007; read-out: IC50 against Leishmania donovani in infected macrophages; cited from earlier work
[13] = test system: leishmaniasis (LV82 PM infection), liver parasitemia; assay: In vivo efficacy: liver parasitemia in BALB/c mice with leishmaniasis; conditions: 10 mg/kg i.p.; for % Reduction (Average) in liver parasitemia: infected BALB/c mice
Procedure: The following protocols were used to prepare the various treatments described in Table 2: • a. Miltefosine ([…] stock solution in sterile PBS): 7.5 mg miltefosine was weighed and put in a eppendorf tube, then 0.75 mL of sterile PBS was added. After vortexing, a clear solution was formed. Make 1 mg/mL solution daily by diluting 100 μL of 10 mg/mL miltefosine solution in 900 μL sterile PBS. • b. Vehicle control: 5% (v/v) DMSO, 50% (v/v) PEG 400, 10% (v/v) Ethanol, and 35% (v/v) distilled water. • c. Compound 47 (2 mg/mL solution of compound 47 in PEG 400/Ethanol vehicle): […]. Dilute the above solution 1:20 with PEG 400/EtOH/water daily. After vortexing and warming up at 37° C. for 30 min., a clear solution formed. • d. Compound 48 (2 mg/mL solution of compound 48 in PEG 400/Ethanol vehicle): 6.8 mg of compound 48 was dissolved in 0.17 mL of DMSO to make a 40 mg/mL stock solution. After vortexing, a yellowish-brown solution was formed. Diluted the above solution 1:20 with PEG 400/EtOH/water daily. After vortexing a clear solution formed. • e. Compound 50 (2 mg/mL solution of compound 50 in PEG 400/Ethanol vehicle): 8.4 mg of compound 50 was dissolved in 0.21 mL of DMSO to make a 40 mg/mL stock solution. After vortexing, a dark yellowish-brown solution was formed. Diluted the above solution 1:20 with PEG 400/EtOH/water. After vortexing a clear solution formed.
(§1) Compounds 47, 48, and 50 were then evaluated in animal studies with BALB/c mice with leishmaniasis. Compounds were delivered via i.p. injection at 10 mg/kg, with untreated, vehicle, and miltefosine controls as described in Table 2. […] Miltefosine, the only oral treatment currently available to treat leishmaniasis in humans, was also evaluated in the BALB/c mice for comparison purposes.

[14] = Body and organ weights of infected, treated BALB/c mice; format: in vivo
Procedure: as §1

[15] = test system: Leishmania donovani; assay: Antileishmanial assay, Leishmania in infected macrophages (L. donovani)
[16] = read-out: IC50 Leishmania in infected macrophages
[17] = read-out: IC50 against Leishmania amazonensis
[18] = HepG2, read-out: IC50 against the HepG2 cell line
[19] = HepG2, read-out: IC50 mammalian HepG2 cells

| SMILES | MIC S. aureus [1] | IC50 [2, 16] [nM] | IC50 [2, 17] [nM] | IC50 [3, 18] [nM] | IC50 [3, 19] [nM] | MIC P. aeruginosa [4] | MIC C. glabrata [5] | MIC E. faecalis [6] | MIC S. pyogenes [7] | MIC B. subtilis [8] | MIC C. albicans [9] | MIC B. anthracis [10] | IC50 [11] [µg/mL] | also measured |
| --- | --- | --- | --- | --- | --- | --- | --- | --- | --- | --- | --- | --- | --- | --- |
| C=C[C@@H](C#CC#C[C@H](O)CCCCCCCCC)OC(C)=O [Compound 1, (3S,8R)-8-hydroxyheptadeca-1-en-4,6-diyn-3-yl acetate] | >1000 | 626 | 630 | 35000 ± 3000 | 35000 ± 3000 | >1000 | >1000 | 32 | 8 | 8 | >1000 | 4 | 0.341 | Selectivity Index ([2]; IC50 for HepG2 cells/IC50 for Leishmania amazonensis): 60 |
| C=CC(C#CC#CC(O)CCCCCCCCC)OC(C)=O [(S,S)-1, 8-hydroxyheptadeca-1-ene-4,6-diyn-3-yl acetate, reference compound] | – | 1280 | 1280 | – | – | – | – | – | – | – | – | – | 0.27 | IC50 [12]: 320 nM |
| C=C[C@@H](C#CC#C[C@@H](CCCCCCCCC)NCCCC)OC(C)=O [Compound 48, (3S,8R)-8-(butylamino)heptadeca-1-en-4,6-diyn-3-yl acetate] | 500 | – | – | 342000 ± 46000 | 342000 ± 46000 | >1000 | >1000 | 500 | 250 | 125 | 1000 | 250 | 5.72 | LDU mean ± SD ([13]; group mean, n=4): 2721.9; % Reduction (Average) in liver parasitemia [13]: 32.4%; % Reduction (Average) in liver parasitemia ([13]; listed as compound 48): 32%; # of amastigotes per 200 nuclei ([13]; liver, individual mice): 536 and 529 and 498 and 476; LDU ([13]; total liver parasitemia, individual mice): 2541.4 and 2830.2 and 2913.1 and 2603.0; Body weight ([14]; 10 mg/kg i.p., individual mice, Table 4): 17.2 g and 19.2 g and 19.8 g and 19.0 g; Mean body weight of mice Post-treatment ([14]; post-treatment, 10 mg/kg i.p., group mean): 18.8 g; Mean body weight of mice Pre-treatment ([14]; pre-treatment (baseline), group mean): 19.3 g; Selectivity Index ([15]; IC50 for HepG2 cells/IC50 for Leishmania donovani): 10,000; IC50 ([15]; Leishmania donovani, Macrophage, read-out: IC50 Leishmania in infected macrophages): 34 nM |
